EC50 data for 56 molecules are collected here from US12479803B2, “Antimalarial compounds” (UNIVERSITY OF CENTRAL FLORIDA RESEARCH FOUNDATION, INC., priority 2019, dated 2025).

Like-named read-outs stand apart in the source and are kept apart here.

As a reminder, the EC50 is the concentration giving half of the maximal effect.

For the assay, the system named is CQ-resistant (Dd2) strain of P. falciparum. The assay can be described thus: In vitro antiplasmodial activity, SYBR Green I fluorescence assay, Dd2 strain. The class given is cell-based, Plasmodium falciparum. The method, then: A set of 104 new styrylquinoline derivatives were synthesized and investigated for in vitro their antimalarial activity. To test antimalarial activities, different dilutions of compounds were added to P. falciparum culture. Following 72 h incubation at 37° C. in an atmosphere containing 5% CO2, the inhibitory property of the compounds were determined by SYBR Green I fluorescence assay. Meanwhile, SARs studies were conducted.
The SAR studies were focused on improving the in vitro activity of 2-arylvinylquinolines against the CQ-resistant Pf Dd2 strain.

Setting [1] is: CQ-resistant (Dd2) strain, 72 h incubation, read-out: EC50 (nmol).

Take `CN(C)CCNc1cc(/C=C/c2ccc([N+](=O)[O-])cc2)nc2ccc(Cl)cc12` [Compound 23]: the EC50 under setting [1] was 28.7 ± 3.8 nM.
On to `FC(F)(F)c1cccc(/C=C/c2cc(NCCCCN3CCOCC3)c3cc(Cl)ccc3n2)c1` [Compound 100], for which the concentration giving a half-maximal response (EC50) under setting [1] came to 33.9 ± 1.4 nM.
In the case of `Fc1ccc(/C=C/c2cc(N3CCN(c4ccccn4)CC3)c3cc(Cl)ccc3n2)cc1` [Compound 67], under setting [1], the EC50 amounted to 3300 ± 60 nM.
As for `CN(C)CCNc1cc(/C=C/c2ccc(F)cc2)nc2ccc(F)cc12` [Compound 18], the EC50 under setting [1] worked out at 30.9 ± 5.5 nM.
In the case of `CN(C)CCCCNc1cc(/C=C/c2ccccc2)nc2ccc(Cl)cc12` [Compound 35], under setting [1], the EC50 stood at 68 ± 9 nM.
Consider `Fc1ccc(/C=C/c2cc(N3CCOCC3)c3cc(Cl)ccc3n2)cc1` [Compound 62], for which the EC50 under setting [1] was determined as 6750 ± 1080 nM.
With `Clc1ccc2nc(/C=C/c3ccncc3)cc(NCCN3CCOCC3)c2c1` [Compound 82], the EC50 under setting [1] was 137 ± 14.6 nM.
Take `Fc1cc(F)c(F)c(/C=C/c2cc(NCCCCN3CCOCC3)c3cc(Cl)ccc3n2)c1` [Compound 106]: under setting [1], the EC50 worked out at 588 ± 256 nM.
For `COc1cc(/C=C/c2cc(NCCN(C)C)c3cc(Cl)ccc3n2)cc(OC)c1OC` [Compound 27], the concentration giving a half-maximal response (EC50) under setting [1] stood at 44.4 ± 3.6 nM.
Turning to `CN(C)CCNc1cc(/C=C/c2ccco2)nc2ccc(F)cc12` [Compound 44], the EC50 (Dd2 strain, read-out: EC50) came to 82.6 ± 9.4 nM.
With `CN(C)CCNc1cc(/C=C/c2ccccc2)nc2ccc(F)cc12` [Compound 16], the 50% effective concentration (EC50) (Dd2 strain, read-out: EC50) worked out at 21 ± 2.1 nM.
In the case of `Fc1ccc(/C=C/C=C/c2cc(NCCCCN3CCOCC3)c3cc(Cl)ccc3n2)cc1` [Compound 113], under setting [1], the EC50 was 96.5 ± 24.4 nM.
Regarding `CN(C)CCNc1cc(/C=C/C2CCCCC2)nc2ccc(Cl)cc12` [Compound 57], under setting [1], the EC50 worked out at 394 ± 40 nM.
For the molecule `CN(C)CCNc1cc(CCc2ccncc2)nc2ccc(Cl)cc12` [Compound 59], under “Dd2 strain, read-out: EC50”, the EC50 amounted to 259 ± 15.5 nM.
In the case of `CN(C)CCNc1cc(/C=C/c2ccco2)nc2ccc(Cl)cc12` [Compound 47], the EC50 (Dd2 strain, read-out: EC50) stood at 37 ± 4.3 nM.
With `CN(C)CCCCNc1cc(/C=C/c2ccc(F)cc2)nc2ccc(Cl)cc12` [Compound 37], the 50% effective concentration (EC50) under setting [1] came out at 51.2 ± 1.6 nM.
Consider `Fc1ccc(/C=C/c2cc(Nc3ccc(N4CCCCC4)cc3)c3cc(Cl)ccc3n2)cc1` [Compound 69], for which the EC50 under setting [1] is 667 ± 117 nM.
As to `COc1ccc2nc(/C=C/c3ccc(OC)c(OC)c3)cc(NCCN(C)C)c2c1` [Compound 13], under setting [1], the EC50 came to 187 ± 13.6 nM.
Still for that read-out and setting: to `FC(F)(F)Oc1ccc(/C=C/c2cc(NCCCCN3CCOCC3)c3cc(Cl)ccc3n2)cc1` [Compound 101] belongs 56.6 ± 7.6 nM; to `Clc1ccc2nc(/C=C/c3ccncc3)cc(NCCN3CCCC3)c2c1` [Compound 85], 67.7 ± 11.6 nM; to `COc1ccc(/C=C/c2cc(NCCN(C)C)c3cc(F)ccc3n2)cc1OC` [Compound 20], 41.1 ± 0.6 nM.
The same measure, in the same setting: the figure for `Fc1cc(F)cc(/C=C/c2cc(NCCCCN3CCOCC3)c3cc(Cl)ccc3n2)c1` [Compound 103] is 185 ± 34.1 nM.
The same measure, in the same setting: to `Fc1ccc(/C=C/c2cc(NCCN3CCCC3)c3cc(Cl)ccc3n2)cc1` [Compound 83] belongs 92.3 ± 5.8 nM.
As for `COc1ccc2nc(/C=C/c3cccc([N+](=O)[O-])c3)cc(NCCN(C)C)c2c1` [Compound 11], the EC50 (Dd2 strain, read-out: EC50) stood at 49.5 ± 4 nM.
For the molecule `Clc1ccc2nc(-c3ccncc3)cc(NCCCCN3CCOCC3)c2c1` [Compound 120], under setting [1], the 50% effective concentration (EC50) stood at 796 ± 161 nM.
Turning to `COc1ccc(/C=C/c2cc(NCCN(C)C)c3cc(OC)ccc3n2)cc1` [Compound 12], under setting [1], the EC50 was 43.6 ± 2 nM.
`Clc1ccc2nc(/C=C/c3ccncc3)cc(N3CCOCC3)c2c1` [Compound 63]: the EC50 under setting [1] worked out at 3590 ± 870 nM.
Regarding `CN(C)CCNc1cc(/C=C/c2cc3ccccc3[nH]2)nc2ccc(Cl)cc12` [Compound 54], under “Dd2 strain, read-out: EC50”, the EC50 is 95.9 ± 6.7 nM.
Take `CN1CCN(CCCCNc2cc(/C=C/c3ccc(F)cc3)nc3ccc(Cl)cc23)CC1` [Compound 95]: the EC50 under setting [1] was 43 ± 7.5 nM.
Consider `COc1ccc(/C=C/c2cc(NCCN(C)C)c3cc(Cl)ccc3n2)cc1OC` [Compound 26], for which, under setting [1], the EC50 came to 38.9 ± 7.8 nM.
Turning to `Fc1cccnc1/C=C/c1cc(NCCCCN2CCOCC2)c2cc(Cl)ccc2n1` [Compound 112], the EC50 (Dd2 strain, read-out: EC50) amounted to 197 ± 16.5 nM.
As to `CN(C)CCNc1cc(/C=C/c2ccc([N+](=O)[O-])cc2)nc2ccccc12` [Compound 33], under setting [1], the EC50 was 47.9 ± 9.5 nM.
For `COc1ccc(/C=C/c2cc(NCCN(C)C)c3cc(F)ccc3n2)cc1` [Compound 19], under setting [1], the EC50 came to 37.8 ± 8.7 nM.
As to `COc1cc(/C=C/c2cc(NCCN(C)C)c3cc(F)ccc3n2)cc(OC)c1OC` [Compound 21], under “Dd2 strain, read-out: EC50”, the EC50 amounted to 38.6 ± 1.8 nM.
As to `CN(C)CCNc1cc(/C=C/c2ccccn2)nc2ccc(Cl)cc12` [Compound 51], the EC50 under setting [1] was 67.5 ± 1.9 nM.
Consider `Fc1ccc(/C=C/c2cc(NCCCCN3CCOCC3)c3cc(Cl)ccc3n2)c(F)c1` [Compound 104], for which, under setting [1], the EC50 was 72.6 ± 17.2 nM.
Consider `CN(C)CCNc1cc(/C=C/c2ccc([N+](=O)[O-])cc2)nc2ccc(F)cc12` [Compound 17], for which the EC50 under setting [1] turned out to be 30.9 ± 5.9 nM.
Same read-out and setting: the figure for `Clc1ccc2nc(/C=C/c3ccncc3)cc(N3CCCC3)c2c1` [Compound 66] is 1180 ± 175 nM.
On the same count and under the same terms, the figure for `CN(C)CCCCNc1cc(/C=C/c2ccc([N+](=O)[O-])cc2)nc2ccc(Cl)cc12` [Compound 36] is 52.5 ± 2 nM.
With `Cc1cc(NCCCN(C)C)c2cc(Cl)ccc2n1` [Compound 6e], the EC50 is 1240 ± 139 nM under setting [1] and “inactive” (Dd2 strain).
Take `N#Cc1ccc(/C=C/c2cc(N3CCOCC3)c3cc(Cl)ccc3n2)cc1` [Compound 64]: the EC50 reads like this: under setting [1], 1010 ± 84.2 nM; (Dd2 strain, read-out: EC50) over 1000 nM.
For the molecule `Clc1ccc2nc(/C=C/c3ccccc3)cc(NCCN3CCCC3)c2c1` [Compound 84], under setting [1], the EC50 was 107 ± 8.4 nM.
In the case of `Clc1ccc2nc(/C=C/c3ccncc3)cc(Nc3ccc(N4CCCCC4)cc3)c2c1` [Compound 70], the EC50 under setting [1] is 793 ± 81.3 nM.
For the molecule `CN(C)CCNc1cc(/C=C/c2ccc(N(C)C)cc2)nc2ccc(Cl)cc12` [Compound 28], the EC50 under setting [1] is 88.3 ± 2.2 nM.
In the case of `COc1ccc2nc(C)cc(NCCN(C)C)c2c1` [Compound 6a], the EC50 reads like this: under setting [1], 5520 ± 571 nM; (Dd2 strain) “inactive”.
Turning to `Clc1ccc2nc(/C=C/c3ccncc3)cc(N3CCN(c4ccccn4)CC3)c2c1` [Compound 68], the EC50 under setting [1] amounted to 2570 ± 610 nM.
With `COc1ccc2nc(/C=C/c3ccccc3[N+](=O)[O-])cc(NCCN(C)C)c2c1` [Compound 10], the half-maximal effective concentration (EC50) (Dd2 strain, read-out: EC50) was 56.3 ± 8.1 nM.
Take `CN(C)CCNc1cc(/C=C/c2cccs2)nc2ccc(Cl)cc12` [Compound 48]: under setting [1], the EC50 is 29.7 ± 4.6 nM.
On to `COc1ccc2nc(/C=C/c3ccccn3)cc(NCCN(C)C)c2c1` [Compound 42], for which, under “Dd2 strain, read-out: EC50”, the EC50 was found to be 1030 ± 233 nM.
For the molecule `Fc1ccc(/C=C/c2cc(N3CCC(N4CCCCC4)CC3)c3cc(Cl)ccc3n2)cc1` [Compound 71], the EC50 under setting [1] is 487 ± 69.5 nM.
For `COc1ccc2nc(/C=C/c3ccco3)cc(NCCN(C)C)c2c1` [Compound 39], the EC50 (Dd2 strain, read-out: EC50) was determined as 88.7 ± 2.3 nM.
The same measure, in the same setting: to `FC(F)(F)c1ccccc1/C=C/c1cc(NCCCCN2CCOCC2)c2cc(Cl)ccc2n1` [Compound 99] belongs 104 ± 7.2 nM.
As to `CN1CCN(CCNc2cc(/C=C/c3ccncc3)nc3ccc(Cl)cc23)CC1` [Compound 87], under setting [1], the EC50 turned out to be 53.3 ± 8.5 nM.
As to `COc1ccc2nc(/C=C/c3ccc(F)cc3)cc(NCCN(C)C)c2c1` [Compound 15], under setting [1], the EC50 was found to be 32.9 ± 5.1 nM.
On the same count and under the same terms, to `Fc1ccc(/C=C/c2cc(NCCCN3CCOCC3)c3cc(Cl)ccc3n2)cc1` [Compound 90] belongs 40.8 ± 5.6 nM.
Same read-out and setting: to `FC(F)(F)c1cc(/C=C/c2cc(NCCCCN3CCOCC3)c3cc(Cl)ccc3n2)cc(C(F)(F)F)c1` [Compound 102] belongs 108 ± 8 nM.
